According to patent US20070238770A1, “PROCESS FOR PREPARING NOVEL CRYSTALLINE FORMS OF PELIGLITAZAR, NOVEL STABLE FORMS PRODUCED THEREIN AND FORMULATIONS” (Bristol-Myers Squibb Company, priority 2006, published 2007):

How the values were obtained:
[1] = Moisture-sorption isotherm; format: physicochemical; settings: from 25 to 75% RH at 25° C.
Description: Moisture sorption isotherms were collected in a VTI SGA-100 Symmetric Vapor Analyzer using approximately 10 mg of sample. The sample was dried at 60° C. until the loss rate of 0.0005 wt %/min was obtained for 10 minutes. The sample was tested at 25° C. and 3 or 4, 5, 15, 25, 35, 45, 50, 65, 75, 85, and 95% RH. Equilibration at each RH was reached when the rate of 0.0003 wt %/min for 35 minutes was achieved or a maximum of 600 minutes.

[2] = Mechanical stress on crystal form; format: physicochemical; settings: mechanical stress applied
[3] = Solid state stability under storage conditions (DSC, PXRD, HPLC); settings: for solid state stability (physically and chemically): RT/RL, 25° C./60% RH, 40° C./75% RH, 50° C., up to 2 weeks, DSC, PXRD, HPLC analysis
[4] = Solubility in water; format: physicochemical; settings: final pH 7.6

| Structure (SMILES) | moisture uptake (hygroscopicity) [1] | conversion of N-1 form to the N-2 form under mechanical stress [2] | solid state stability (physically and chemically) [3] | conversion of the N-1 form to the N-2 form (PXRD analysis) ([3]; under the storage conditions of b18) | solubility in water [4] |
| --- | --- | --- | --- | --- | --- |
| COc1ccc(OC(=O)N(CC(=O)O)[C@@H](C)c2ccc(OCCc3nc(-c4ccccc4)oc3C)cc2)cc1 [Form N-1, peliglitazar] | negligible | will not cause conversion | stable | no conversion | – |
| COc1ccc(OC(=O)N(CC(=O)O)[C@@H](C)c2ccc(OCCc3nc(-c4ccccc4)oc3C)cc2)cc1.NCCCC[C@H](N)C(=O)O | – | – | stable | – | greater than 124 mg/mL |
